# Target: T1, C-X-C chemokine receptor type 3 (Homo sapiens, UniProt P49682)
# T1 sequence (P49682 whole entry): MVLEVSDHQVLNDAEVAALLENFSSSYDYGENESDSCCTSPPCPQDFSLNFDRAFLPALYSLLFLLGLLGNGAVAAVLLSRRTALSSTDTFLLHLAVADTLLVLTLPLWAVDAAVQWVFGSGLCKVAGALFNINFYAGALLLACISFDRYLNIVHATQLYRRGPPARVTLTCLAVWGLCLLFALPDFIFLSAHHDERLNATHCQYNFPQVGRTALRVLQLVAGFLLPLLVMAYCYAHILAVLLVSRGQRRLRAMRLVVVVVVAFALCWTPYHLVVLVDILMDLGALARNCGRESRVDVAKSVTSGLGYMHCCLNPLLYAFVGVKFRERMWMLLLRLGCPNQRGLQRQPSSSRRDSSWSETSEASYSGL
# Experiment: Receptor Internalization Assay (RIA): Stock solutions of test compounds are made up at a concentration of 10 mM in DMSO, and serially diluted in PBS containing 0.5% BSA to concentrations required for inhibition dose response curves. Diluted compounds are then mixed with an equal volume of CXCL10 (Peprotech) diluted in PBS. Anticoagulated venous human whole blood is added to the mixture, which is then incubated in a CO2 incubator at 37° C. to allow for ligand mediated receptor internalization (final CXCL10 concentration is 9 nM). After 30 min, the blood is mixed with fluorescently labeled CXCR3 and CD4 specific antibodies (Becton Dickinson) and incubated on ice for 10 minutes. Samples are then mixed with BD FACS Lysing Solution (Becton Dickinson) in order to eliminate red blood cells. After washing the cells with PBS containing 0.5% BSA, the samples are then analyzed in a flow cytometer (FACS Canto II, Becton Dickinson). For data analysis using FACSDiva software (Becton Dickinson), the mean fluorescence corresponding to CXCR3 cell surface expression was determined on CD4 positive cells. The calculated IC50 values may fluctuate depending on the daily assay performance. Fluctuations of this kind are known to those skilled in the art. In the case where IC50 values have been determined several times for the same compound, mean values are given.
row,Compound,IC50
1,CC(C)c1ncn(CC(=O)N2C(C)CNCC2c2sc(C(F)(F)F)cc2-c2cnc(C3CC3)nc2)n1 (centres undefined),524 nM
2,COCc1ncn(CC(=O)N2C(C)CNCC2c2sc(C(F)(F)F)cc2-c2cnc(C3CC3)nc2)n1 (centres undefined),1390 nM
3,CCc1ncn(CC(=O)N2C(C)CNCC2c2sc(C(F)(F)F)cc2-c2cnc(C(F)(F)F)nc2)n1 (centres undefined),148 nM
4,CC1CNCC(c2sc(C(F)(F)F)cc2-c2cnc(C(F)(F)F)nc2)N1C(=O)Cn1cnc(C(N)=O)n1 (centres undefined),1710 nM
5,CC1CNCC(c2sc(C(F)(F)F)cc2-c2cnc(C(F)(F)F)nc2)N1C(=O)Cn1cnc(C(C)(C)C)n1 (centres undefined),349 nM
6,CC1CNCC(c2sc(C(F)(F)F)cc2-c2cnc(C(F)(F)F)nc2)N1C(=O)Cn1cnc(CO)n1 (centres undefined),809 nM
7,CC1CNCC(c2sc(C(F)(F)F)cc2-c2cnc(C3CC3)nc2)N1C(=O)Cn1cnc(C(C)(C)C)n1 (centres undefined),679 nM
8,CCCc1ncn(CC(=O)N2C(C)CNCC2c2sc(C(F)(F)F)cc2-c2cnc(C(F)(F)F)nc2)n1 (centres undefined),221 nM
9,CCc1ncn(CC(=O)N2C(C)CNCC2c2sc(C(F)(F)F)cc2-c2cnc(C3CC3)nc2)n1 (centres undefined),190 nM
10,Cc1ncn(CC(=O)N2C(C)CNCC2c2sc(C(F)(F)F)cc2-c2cnc(C3CC3)nc2)n1 (centres undefined),462 nM
11,COCc1ncn(CC(=O)N2C(C)CNCC2c2sc(C(F)(F)F)cc2-c2cnc(C(F)(F)F)nc2)n1 (centres undefined),606 nM
12,CC1CNCC(c2sc(C(F)(F)F)cc2-c2cnc(C(F)(F)F)nc2)N1C(=O)Cn1cnc(C(C)(C)O)n1 (centres undefined),830 nM
13,Cc1ncn(CC(=O)N2C(C)CNCC2c2sc(C(F)(F)F)cc2-c2cnc(C(F)(F)F)nc2)n1 (centres undefined),189 nM
14,CCOc1ncc(-c2cc(C(F)(F)F)sc2C2CNCC(C)N2C(=O)Cn2cnc(CC)n2)cn1 (centres undefined),235 nM
15,CCOc1ncc(-c2cc(C(F)(F)F)sc2C2CNCC(C)N2C(=O)Cn2cnc(C(C)(C)C)n2)cn1 (centres undefined),552 nM
16,CCOc1ncc(-c2cc(C(F)(F)F)sc2C2CNCC(C)N2C(=O)Cn2cnc(C)n2)cn1 (centres undefined),211 nM
17,CCOc1ncc(-c2cc(C(F)(F)F)sc2C2CNCC(C)N2C(=O)Cn2cnc(COC)n2)cn1 (centres undefined),950 nM
18,CC(C)c1ncn(CC(=O)N2C(C)CNCC2c2sc(C(F)(F)F)cc2-c2cnc(C(F)(F)F)nc2)n1 (centres undefined),174 nM
19,CCOc1ncc(-c2cc(C(F)(F)F)sc2C2CNCC(C)N2C(=O)Cn2cnc(C(C)C)n2)cn1 (centres undefined),299 nM

# Source: ChEMBL document CHEMBL5725459, “(R)-2-methyl-piperazine derivatives as CXCR3 receptor modulators” (2018)
